{"source": "ChEMBL document CHEMBL2021902", "about": "“Type 1 phototherapeutic agents, part I: preparation and cancer cell viability studies of novel photolabile sulfenamides” (ACS Med Chem Lett, 2011)", "assay_type_in_all_cases": "functional, cell-based", "key": {"U-937": {"system": "U-937", "assay": "Cytotoxicity in UV-irradiated human U937 cells exposed to photosensitizer for 2 hrs before irradiation for 20 mins by WST-1 assay", "details": "for IC50: U-937, light or radiation study"}, "KB": {"system": "KB", "assay": "Cytotoxicity in UV-irradiated human KB cells exposed to photosensitizer for 2 hrs before irradiation for 20 mins by WST-1 assay"}, "HT-29": {"system": "HT-29", "assay": "Cytotoxicity in UV-irradiated human HT-29 cells exposed to photosensitizer for 2 hrs before irradiation for 20 mins by WST-1 assay"}, "HCT-116": {"system": "HCT-116", "assay": "Cytotoxicity in UV-irradiated human HCT116 cells exposed to photosensitizer for 2 hrs before irradiation for 20 mins by WST-1 assay"}}, "note": "Activity calls are given as the source filed them. The calls are words filed in the database; no cut-off is given here.", "data": [{"smiles": "O=[N+]([O-])c1ccc(SN2Cc3ccccc3-c3ccccc32)cc1", "values": [{"measurement": "Activity", "setting": "U-937", "value": "Dose-dependent effect"}, {"measurement": "IC50", "setting": "U-937", "value": 7.3, "unit": "µM"}]}, {"smiles": "CC1=Nc2ccc(Cl)cc2N(Sc2ccc([N+](=O)[O-])cc2)c2ccccc21", "values": [{"measurement": "Activity", "setting": "U-937", "value": "Dose-dependent effect"}, {"measurement": "IC50", "setting": "U-937", "value": 2, "unit": "µM"}]}, {"smiles": "O=[N+]([O-])c1ccc(SN2CCc3ccccc3-c3ccccc32)cc1", "values": [{"measurement": "Activity", "setting": "U-937", "value": "Dose-dependent effect"}, {"measurement": "IC50", "setting": "U-937", "value": 6, "unit": "µM"}]}, {"smiles": "O=[N+]([O-])c1ccc(SN2c3ccccc3C=Cc3ccccc32)cc1", "values": [{"measurement": "Activity", "setting": "KB", "value": "Active"}, {"measurement": "Activity", "setting": "U-937", "value": "Dose-dependent effect"}, {"measurement": "IC50", "setting": "U-937", "value": 1.2, "unit": "µM"}, {"measurement": "Activity", "setting": "HT-29", "value": "Active"}, {"measurement": "Activity", "setting": "HCT-116", "value": "Active"}]}, {"smiles": "O=[N+]([O-])c1ccc(SN2c3ccccc3Sc3ccccc32)cc1", "values": [{"measurement": "Activity", "setting": "U-937", "value": "Dose-dependent effect"}, {"measurement": "IC50", "setting": "U-937", "value": 12.4, "unit": "µM"}]}, {"smiles": "O=[N+]([O-])c1ccc(SN2c3ccccc3Cc3ccccc32)cc1", "values": [{"measurement": "Activity", "setting": "KB", "value": "Active"}, {"measurement": "Activity", "setting": "U-937", "value": "Dose-dependent effect"}, {"measurement": "IC50", "setting": "U-937", "value": 1.3, "unit": "µM"}, {"measurement": "Activity", "setting": "HT-29", "value": "Active"}, {"measurement": "Activity", "setting": "HCT-116", "value": "Active"}]}, {"smiles": "O=[N+]([O-])c1ccc(SN(c2ccccc2)c2ccccc2)cc1", "values": [{"measurement": "Activity", "setting": "U-937", "value": "Dose-dependent effect"}, {"measurement": "IC50", "setting": "U-937", "value": 6.8, "unit": "µM"}]}, {"smiles": "O=[N+]([O-])c1ccc(Sn2c3ccccc3c3ccccc32)cc1", "values": [{"measurement": "Activity", "setting": "U-937", "value": "Dose-dependent effect"}, {"measurement": "IC50", "setting": "U-937", "value": "> 20", "unit": "µM"}]}, {"smiles": "O=[N+]([O-])c1ccc(SN2Cc3ccccc3Cc3ccccc32)cc1", "values": [{"measurement": "Activity", "setting": "U-937", "value": "Dose-dependent effect"}, {"measurement": "IC50", "setting": "U-937", "value": 5.7, "unit": "µM"}]}, {"smiles": "O=[N+]([O-])c1ccc(SN2c3ccccc3N=Nc3ccccc32)cc1", "values": [{"measurement": "Activity", "setting": "U-937", "value": "Dose-dependent effect"}, {"measurement": "IC50", "setting": "U-937", "value": "> 20", "unit": "µM"}]}, {"smiles": "O=[N+]([O-])c1ccc(SN2Cc3ccccc3Oc3ccccc32)cc1", "values": [{"measurement": "Activity", "setting": "U-937", "value": "Dose-dependent effect"}, {"measurement": "IC50", "setting": "U-937", "value": 17.2, "unit": "µM"}]}, {"smiles": "O=[N+]([O-])c1ccc(SN2c3ccccc3Oc3ccccc32)cc1", "values": [{"measurement": "Activity", "setting": "U-937", "value": "Dose-dependent effect"}, {"measurement": "IC50", "setting": "U-937", "value": "> 20", "unit": "µM"}]}]}
